Assay results reported in ChEMBL document CHEMBL2074287, “Modulation of digoxin transport across Caco-2 cell monolayers by citrus fruit juices: lime, lemon, grapefruit, and pummelo” (Pharm Res, 2003).

Biological target: ATP-dependent translocase ABCB1 (Homo sapiens, UniProt P08183)
Assay: TP_TRANSPORTER: transepithelial transport of digoxin (Digoxin: 30nM) in Caco-2 cells
Type: functional, cell-based

Sequence of ATP-dependent translocase ABCB1 (P08183 whole entry): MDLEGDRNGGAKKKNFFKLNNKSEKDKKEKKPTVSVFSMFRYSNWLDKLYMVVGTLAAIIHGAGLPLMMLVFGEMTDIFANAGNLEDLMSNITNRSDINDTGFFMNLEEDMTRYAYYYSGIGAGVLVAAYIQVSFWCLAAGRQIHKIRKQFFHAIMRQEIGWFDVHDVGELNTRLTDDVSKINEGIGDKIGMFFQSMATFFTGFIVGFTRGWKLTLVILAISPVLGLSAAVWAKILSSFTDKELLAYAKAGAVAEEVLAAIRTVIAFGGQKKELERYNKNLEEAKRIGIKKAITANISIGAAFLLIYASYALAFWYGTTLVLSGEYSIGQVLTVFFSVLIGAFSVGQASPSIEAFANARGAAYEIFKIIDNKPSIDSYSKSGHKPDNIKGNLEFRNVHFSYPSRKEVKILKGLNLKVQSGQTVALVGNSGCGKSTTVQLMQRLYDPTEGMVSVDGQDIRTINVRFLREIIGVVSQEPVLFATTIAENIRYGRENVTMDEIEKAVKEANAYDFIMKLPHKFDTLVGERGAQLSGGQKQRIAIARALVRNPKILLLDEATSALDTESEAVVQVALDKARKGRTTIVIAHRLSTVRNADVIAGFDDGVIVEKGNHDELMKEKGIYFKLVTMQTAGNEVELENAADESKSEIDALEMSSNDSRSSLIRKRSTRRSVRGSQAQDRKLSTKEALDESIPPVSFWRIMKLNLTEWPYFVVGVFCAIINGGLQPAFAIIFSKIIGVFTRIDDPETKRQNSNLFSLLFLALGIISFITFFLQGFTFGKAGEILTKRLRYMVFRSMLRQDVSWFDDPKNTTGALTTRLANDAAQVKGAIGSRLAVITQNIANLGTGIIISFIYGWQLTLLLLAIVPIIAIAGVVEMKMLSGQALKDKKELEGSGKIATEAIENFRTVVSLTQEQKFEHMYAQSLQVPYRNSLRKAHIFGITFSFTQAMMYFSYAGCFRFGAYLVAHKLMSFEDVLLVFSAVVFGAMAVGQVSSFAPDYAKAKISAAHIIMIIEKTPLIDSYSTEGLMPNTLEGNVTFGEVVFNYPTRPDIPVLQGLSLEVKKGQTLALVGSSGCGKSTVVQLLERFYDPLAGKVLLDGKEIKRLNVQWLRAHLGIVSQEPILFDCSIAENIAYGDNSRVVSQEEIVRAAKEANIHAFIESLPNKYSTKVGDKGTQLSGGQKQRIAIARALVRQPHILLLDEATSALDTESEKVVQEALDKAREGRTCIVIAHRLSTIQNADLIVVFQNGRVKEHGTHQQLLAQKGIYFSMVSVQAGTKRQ

Activity | Substance
inhibitor [+] | PUMMELO JUICE
inhibitor [+] | GRAPEFRUIT JUICE
